Measured values: PMC9865645, “The Impact of N^ε-Acryloyllysine Piperazides on the Conformational Dynamics of Transglutaminase 2” (International Journal of Molecular Sciences, 2023)
Like-named read-outs stand apart in the source and are kept apart here.

Target: T1, self-produced hTGase 2 (Homo sapiens, UniProt P21980)
T1 construct: thrombin cleavage site (N); made in house; host or cells: E. coli BL21(DE3)
T1 sequence (P21980 1-687): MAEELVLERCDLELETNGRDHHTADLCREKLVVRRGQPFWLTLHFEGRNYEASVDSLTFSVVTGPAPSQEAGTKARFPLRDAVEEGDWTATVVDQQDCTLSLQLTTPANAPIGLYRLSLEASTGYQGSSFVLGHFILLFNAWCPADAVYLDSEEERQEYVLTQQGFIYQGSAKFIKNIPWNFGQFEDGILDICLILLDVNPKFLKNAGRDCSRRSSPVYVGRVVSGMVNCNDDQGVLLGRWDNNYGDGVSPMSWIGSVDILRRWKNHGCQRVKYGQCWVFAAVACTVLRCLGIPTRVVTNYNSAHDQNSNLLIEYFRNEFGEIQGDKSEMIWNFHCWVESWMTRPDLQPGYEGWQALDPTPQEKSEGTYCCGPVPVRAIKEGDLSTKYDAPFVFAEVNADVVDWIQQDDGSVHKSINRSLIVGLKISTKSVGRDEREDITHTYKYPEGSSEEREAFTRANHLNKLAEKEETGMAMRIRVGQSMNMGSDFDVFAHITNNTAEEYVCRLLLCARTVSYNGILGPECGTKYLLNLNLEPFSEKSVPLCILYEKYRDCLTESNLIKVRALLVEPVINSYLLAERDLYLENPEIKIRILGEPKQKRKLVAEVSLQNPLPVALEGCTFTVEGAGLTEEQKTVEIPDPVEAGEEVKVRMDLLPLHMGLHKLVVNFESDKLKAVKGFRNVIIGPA
Assay: native GTP-PAGE with increasing concentrations of inhibitor, band quantification
Assay type: biochemical
Conditions: 8.23 µM hTGase 2; for IC50: 50 µM GTP in gel and buffer
Description: Figure 8 Effect of increasing concentrations of inhibitor 2 on the activity and the conformation of hTGase 2. Native GTP-PAGE was performed on 7% separating gels. Both the gel and the running buffer contained 50 µM GTP without (A) and with an additional 500 µM MgCl2 (B). Samples of 8.23 µM self-produced hTGase 2 were first incubated for 30 min at 20 °C in 100 mM MOPS pH 8.0, 100 mM NaCl, 2.12% (v/v) DMSO, 5.33% (v/v) glycerol with CaCl2, GTP, MgCl2, and different concentrations of inhibitor 2, as indicated. GTP and/or MgCl2 were added as indicated, and all samples were incubated for 60 min at 20 °C. After adding native loading buffer, 6 µL of each sample containing 3 µg of hTGase 2 was loaded onto the gel. After electrophoretic separation, gels were stained with Coomassie Brilliant Blue G250, scanned, and the protein bands were quantified (Figure S7 in Supplementary Materials). Four species of hTGase 2, i.e., oligomers and slow-, intermediate-, and fast-migrating species, were identified, with slow- and intermediate-migrating species combined for the quantitative analysis. (C) Percentage of the signals of the three species per lane and (D) percentage of the oligomers’ signal plotted versus the concentration of inhibitor 2. (E) Signals of the slow-/intermediate-migrating and fast-migrating species were added and set to one. (F) Portion of the fast-migrating species in (E) was plotted against the concentration of inhibitor 2. The IC50 values in (D,F) were calculated by non-linear regression according to Equation (S29) in Supplementary Materials.
Sodium dodecyl sulfate-PAGE (SDS-PAGE) and native PAGE were performed on 4% stacking and 7% separating gels using Laemmli buffers (60 min with 120 V, 300 mA and 30 W at room temperature) and the same buffers without SDS (80 min with 120 V, 50 mA and 30 W at 4 °C), respectively. Buffers and gels were as follows: (i) for SDS-PAGE: stacking gel: 0.125 M TRIS pH 6.8, 4% (v/v) acrylamide-bisacrylamide, 0.1% (m/v) SDS; separating gel: 0.375 M TRIS pH 8.8, 7% (v/v) acrylamide-bisacrylamide, 0.1% (m/v) SDS; running buffer: 0.025 M TRIS pH 8.3, 0.2 M glycine, 0.1% (m/v) SDS; (ii) for native PAGE: the same buffers and gels were used without the addition of SDS. Native PAGE experiments, where 50 µM of GTP was added to the stacking and separating gels and the running buffer, are specified as “native GTP-PAGE” (with italic letters). In contrast, experiments without GTP are denoted as “native PAGE” (with italics letters). The term “native (GTP-)PAGE” (with italics letters) is used when we refer to both methods. Further conditions of the SDS-PAGE and native (GTP-)PAGE are detailed in the legends of Figure 7 and Figure 8 and Figures S4–S6 (Supplementary Materials). For the loading of samples onto the stacking gel, three parts of the sample solution were mixed with one part of the respective loading buffer. In the case of SDS-PAGE, SDS loading buffer (0.24 M TRIS, 40% (v/v) glycerol, 8% (m/v) SDS, 2% (v/v) 2-mercaptoethanol, and 0.08% (m/v) bromphenol blue) were used, followed by the denaturation of the mixture for 5 min at 60 °C. […] Afterward, the gels were scanned using a LI-COR Odyssey Fc Imager (700 channel) and analyzed using Image Studio software version 5.2.5. Detected bands were quantified based on the general procedure published by Wagstaff et al. and as detailed in legends to Figures S5 and S6. […]

Molecule `C=CC(=O)NCCCC[C@H](NC(=O)Cc1ccccc1I)C(=O)N1CCN(c2ccc([N+](=O)[O-])nc2)CC1` [Compound 2, N^α-(2-Iodophenylacetyl)-N^ε-acryloyl-L-lysin-4-(2-nitropyridin-5-yl)piperazide] has an IC50 (Gel A (w/o Mg^2+), read-out: IC50, percentage of the oligomers' signal (Figure 8D)) of 5.58 µM, an IC50 (Gel A (w/o Mg^2+), read-out: IC50, portion of the fast-migrating (closed) species of monomeric hTGase 2 (Figure 8F)) of 5.28 µM and an IC50 (Gel B (with Mg^2+, 500 µM MgCl2), read-out: IC50, percentage of the oligomers' signal (Figure 8D)) of 5.71 µM. The IC50 (Gel B (with Mg^2+, 500 µM MgCl2), read-out: IC50, portion of the fast-migrating (closed) species of monomeric hTGase 2 (Figure 8F)) was 5.68 µM and the “ratio of the IC50 and the molar enzyme concentration” value (native GTP-PAGE, calculated from values in Figure 8D,F) was 0.64–0.69.
